From patent publication US20080160099A1, “Methods For Treating or Preventing a Vascular Disease” (THE TRUSTEES OF COLUMBIA UNIVERSITY IN THE CITY OF NEW YORK, priority 2004, published 2008)

Legend:
Format in all cases: biochemical
MMP-2 = molecular target: T1, MMP-2 (Homo sapiens, UniProt P08253); experiment: MMP-2 activity in lysates of fibroblasts cultured from AAA specimens, gelatin zymography with densitometry; conditions: for MMP-2 inhibitory ability (in words): aneurysmal fibroblast MMP-2; for MMP-2 Inhibitory Activity: relative, aneurysmal fibroblast lysates, 1 hour incubation on ice
T1 construct: endogenous in cells; host or cells: fibroblasts cultured from AAA (abdominal aortic aneurysm) specimens
T1 sequence (P08253 110-660): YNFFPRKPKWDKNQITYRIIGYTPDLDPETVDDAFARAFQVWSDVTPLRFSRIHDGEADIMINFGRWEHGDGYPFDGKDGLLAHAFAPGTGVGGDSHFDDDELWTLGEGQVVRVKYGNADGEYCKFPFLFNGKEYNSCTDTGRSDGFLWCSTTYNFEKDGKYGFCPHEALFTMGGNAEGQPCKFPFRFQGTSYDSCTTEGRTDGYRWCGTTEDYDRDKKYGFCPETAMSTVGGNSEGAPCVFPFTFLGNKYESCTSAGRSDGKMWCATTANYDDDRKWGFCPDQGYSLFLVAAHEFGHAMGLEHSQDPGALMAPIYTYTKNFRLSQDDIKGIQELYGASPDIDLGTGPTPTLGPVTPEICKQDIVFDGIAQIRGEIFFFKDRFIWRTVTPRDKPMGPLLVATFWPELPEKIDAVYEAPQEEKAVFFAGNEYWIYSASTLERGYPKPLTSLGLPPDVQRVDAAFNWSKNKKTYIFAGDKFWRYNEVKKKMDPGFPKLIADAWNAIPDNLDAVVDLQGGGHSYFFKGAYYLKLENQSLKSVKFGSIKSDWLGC
Description: Properties of different test compounds against MMP-2 activity of aneurysmal fibroblast origin were examined on 10% polyacrylamide gels containing 1.0 mg/mL of gelatin. Fibroblasts cultured from AAA specimens were lysed using the CellLytic-M lysis/extraction reagent. The protein concentration of each supernatant was determined using the Bradford method using bovine serum albumin as a standard. The aortic fibroblast lysates were incubated alone (control) or with an illustrative Compound or Extract of the Invention at various concentrations for 1 hour on ice. After test compound incubation, equivalent amounts of proteins (30 μg) were mixed with an equal volume of sample buffer (2% SDS, 125 mM Tris-HCL, pH 6.8, 10% glycerol and 0.001% bromophenol blue) and the resulting mixture was subjected to electrophoresis in Trir-glycine el. buffer (25 mMTris pH 8.3, 250 mM Glycine, 0.1% SDS) under denatured but non-reduced conditions. After completion of electrophoresis, the gels were incubated in 2% Triton X-100 for 30 min at room temperature to ensure complete removal of SDS. The gels were then incubated at 37° C. overnight in development buffer (0.005M Tris-HCl (pH 7.5), 0.2MNaCl, 0.005MCaCl2, and 0.02% Brij-35) (Bio-Rad). Gels were stained with 0.05% Coomassie blue R250 (Bio-Rad) for 30 min and destained twice in a mixture of 40% methanol and 10% acetic acid for 20 min. Enzyme activity was detected as unstained bands on a blue background. Quantity One (Bio-Rad Version 4.3.1) was used as a densitometer to quantitate test compound inhibitory ability.

total complement = experiment: Total complement activity (CH50) in human serum; conditions: 30 minutes at 37° C.
Description: Blood was collected from a healthy human donor and allowed to clot at room temperature for 60 minutes. The serum was separated from the clotted blood and transferred to a clean tube. Fucosylated chondroitin sulfate (FCS) was incubated in concentrations of 0.1 mg/mL, 0.4 mg/mL and 1 mg/mL for 30 minutes at 37° C. and the complement was examined by assaying total complement activity (CH50). Complement inhibition was about 40% at a FCS concentration of 0.1 mg/mL, about 83% at a concentration of 0.4 mg/mL and complete at a concentration of 1.0 mg/mL.

C5a = experiment: Complement factor C5a levels in normal human serum, with or without HAGG; conditions: alone and with HAGG, 30 minutes at 37° C.
Description: (§1) An experiment to measure the complement factors C3a and C5a was carried out at […] for 30 minutes using heat-aggregated gamma globulin (HAGG, at 14 mg/mL), a complement activator with known activity, as a positive control.
(§2) Four separate mixtures were prepared by mixing 8 parts of normal human serum with: (1) 2 parts saline, (2) 1 part saline and 1 part HAGG, (3) 1 part saline and 1 part fucosylated chondroitin sulfate (FCS), or (4) 1 part HAGG and 1 part FCS. These four mixtures were then incubated for 30 minutes at 37° C. and the complement was examined by assaying for levels of C3a and C5a.

C3a = experiment: Complement factor C3a levels in normal human serum, with or without HAGG; conditions: alone and with HAGG, 30 minutes at 37° C.
Description: as §1, §2

MMP-2 Inhibitory Activity (MMP-2) | Molecule | MMP-2 inhibitory ability (in words) (MMP-2) | Complement inhibition (CH50) (total complement; 0.1 mg/mL) | Complement inhibition (CH50) (total complement; 0.4 mg/mL) | Complement inhibition (CH50) (total complement; 1.0 mg/mL) | inhibitory activity toward C5a (C5a) | inhibitory activity toward C3a (C3a)
+ | CCC(C)CCCCCCCCCCC(=O)O (centres unmarked) [12-methyltetradecanoic acid] | inhibit aneurysmal fibroblast MMP-2 activity |  |  |  |  | 
+++ | fucosylated chondroitin sulfate | inhibit aneurysmal fibroblast MMP-2 activity | about 40% | about 83% | complete | strong inhibitory activity | strong inhibitory activity

Molecule | MMP-2 Inhibitory Activity (MMP-2) | MMP-2 inhibitory ability (in words) (MMP-2) | Complement inhibition (CH50) (total complement; 0.1 mg/mL) | Complement inhibition (CH50) (total complement; 0.4 mg/mL) | Complement inhibition (CH50) (total complement; 1.0 mg/mL) | inhibitory activity toward C5a (C5a) | inhibitory activity toward C3a (C3a)
Oc1cc(O)c2c(c1)O[C@H](c1cc(O)c(O)c(O)c1)[C@H](O)C2 [(−)-epigallocatechin] | + | inhibit aneurysmal fibroblast MMP-2 activity |  |  |  |  | 
